Test results taken from patent publication US20250264483A1, “IDENTIFICATION OF PROTHROMBOTIC CONDITIONS” (Sydney Local Health District, priority 2020, published 2025).

Key:
[1] = test system: healthy donor platelets; test: Procoagulant platelet flow cytometry assay (GSAO+/CD62P+), healthy donor whole blood with HIT patient plasma; type: cell-based, human; conditions: for difference in proportion of PP with HIT+ plasma compared to HIT−, no plasma or autologous plasma: agonist alone, absence of exogenous heparin (SFLLRN 5 μM, ADP 20 μM, CRP-xL 2 μg/mL; FIG. 2)
Procedure: (§1) The GSAO-based whole blood PP flow cytometry assay established by the inventors^4 was modified to incorporate patient plasma. Citrated whole blood (13 μL) was incubated with and without agonists, unfractionated heparin (Pfizer) and plasma (5 μL) for 10 minutes with final concentrations of 2.5 mM Gly-Pro-Arg-Pro peptide (Sigma-Aldrich) and 2.5 mM calcium chloride. […] In some experiments, blood was pre-treated with 10 μg/mL IV.3 (StemCell Technologies), a monoclonal antibody against FcγRIIa, for 15 minutes prior to the reaction. Samples were incubated with antibodies to CD45, CD41a, CD62P—or isotype control, and GSAO or GSCA, and fixed before analysis on a BD LSRFortessa X-20.
Representative flow cytometry plots from a single donor comparing no plasma with HIT− or HIT+ plasma indicate that addition of HIT+ plasma altered the sub-population profile of the platelets with a marked increase in procoagulant (GSAO+/CD62P+) platelets (FIG. 1A). […] There was also a smaller but statistically significant increase seen with HIT− plasma compared to no plasma (53.63±6.82 vs 42.05±4.24, P<0.05) (FIG. 1B).

[2] = test system: healthy donor platelets; test: Procoagulant platelet flow cytometry assay, healthy donor whole blood with VITT patient plasma; type: cell-based, human; conditions: for proportion of procoagulant platelets: mean±SD
[3] = test system: healthy donor platelets; test: Procoagulant platelet flow cytometry assay, healthy donor whole blood with APS patient plasma; type: cell-based, human; conditions: for Average fold-change in procoagulant platelets: APS patient plasma
Procedure: as §1
Citrated whole blood (13 μL) was incubated with platelet agonists and plasma (5 μL) from healthy donors or patients, for 10 minutes with final concentrations of 2.5 mM Gly-Pro-Arg-Pro peptide (Sigma-Aldrich) and 2.5 mM calcium chloride in a 50 μL reaction. […] The reaction was stopped by further dilution with HBSS, followed by staining with antibodies to CD45 (HI30) (StemCell Technologies), CD41a (HIP8) (BD Biosciences), CD62P (Psel.KO2.3) (eBioscience)—or isotype control (eBioscience), and GSAO or control compound GSCA (4-(N—(S-glutathionylacetyl)amino)benzoic acid). Then, samples were fixed with PAMFix (Platelet Solutions Ltd), centrifuged and resuspended, prior to analysis on a BD LSRFortessa X-20 or BD FACSCanto II cytometer with acquisition of 10000 platelet events. Statistical analyses were performed using GraphPad Prism 9, with statistical significance set at p<0.05.

[4] = cited from earlier work
[5] = HIT+ plasma, agonist, no heparin (FIGS. 3B, D), mean±SEM
[6] = HIT+ plasma, combined sample + agonist + therapeutic concentration heparin / high heparin control sample
[7] = HIT+ plasma, combined sample + agonist + therapeutic concentration heparin / no heparin control sample

In the case of `Nc1ncnc2c1ncn2[C@@H]1O[C@H](COP(=O)(O)OP(=O)(O)O)[C@@H](O)[C@H]1O` [ADP, adenosine diphosphate], the “proportion of PP” value [1, 5] is reported as 5.66±0.79, the “Average fold-change in procoagulant platelets” value (“Average fold-change” for short) [1, 6] is reported as 5.5 fold and the “Average fold-change” value [1, 7] is reported as 4.4 fold. For the same compound, the “difference in proportion of PP with HIT+ plasma compared to HIT−, no plasma or autologous plasma” value [1] was “no difference”.
In the case of SFLLRN, the PP proportion ([2]; SFLLRN 5 μM, ELISA false positive plasma (FIG. 9C)) is reported as 3.93±0.78%, the “proportion of procoagulant platelets” value ([2]; SFLLRN 5 μM, HIT-like VITT (heparin-enhancing VITT) plasma (FIG. 8B)) is reported as 23.60±8.768 and the “proportion of procoagulant platelets” value ([2]; SFLLRN 5 μM, VITT negative plasma (FIG. 8B)) is reported as 2.988±0.9564. For the same compound, the “proportion of procoagulant platelets” value ([2]; SFLLRN 5 μM, VITT plasma (FIG. 8B)) was 16.34±13.74, the PP proportion ([2]; SFLLRN 5 μM, VITT-negative plasma (FIG. 9C)) was 4.50±2.09% and the PP proportion ([2]; SFLLRN 5 μM, healthy donor blood, no plasma (FIG. 9C)) was 3.86±0.97%. For the same compound, the “proportion of procoagulant platelets” value ([2]; SFLLRN 5 μM, no plasma (FIG. 8B)) was 3.194±0.8185, the PP proportion ([2]; SFLLRN 5 μM, plasma from healthy individuals (FIG. 9C)) was 3.57±1.36% and the “proportion of PP” value [1, 5] was 11.19±3.23. The “Average fold-change” value [1, 6] was 8.5 fold, the “Average fold-change” value [1, 7] was 3.7 fold and the “difference in proportion of PP with HIT+ plasma compared to HIT−, no plasma or autologous plasma” value [1] was “no difference”. For the same compound, the “change in procoagulant response between patient and autologous plasma” value ([3]; APS plasma vs autologous plasma (FIG. 13A, C)) was “No significant change”.
Compound heparin has a PP response ([2]; high-dose heparin 100 U/mL, HIT plasma, SFLLRN 5 μM (FIG. 10B)) of 3.48±1.02%, a PP response ([2]; high-dose heparin 100 U/mL, VITT plasma, SFLLRN 5 μM) of 3.54±1.41% and a PP response ([2]; low-dose heparin 0.5 U/mL, VITT plasma, SFLLRN 5 μM (FIG. 10A)) of 12.48±12.84%. The “proportion of PP” value ([1]; HIT+ plasma, ADP 20 μM, high-dose heparin 100 U/mL) was 5.16±0.52, the “proportion of PP” value ([1]; HIT+ plasma, ADP 20 μM, therapeutic-concentration heparin 0.5 U/mL) was 25.22±5.94 and the “proportion of PP” value ([1]; HIT+ plasma, CRP-xL 2 μg/mL, high-dose heparin 100 U/mL) was 11.70±2.63. For the same compound, the “proportion of PP” value ([1]; HIT+ plasma, CRP-xL 2 μg/mL, therapeutic-concentration heparin 0.5 U/mL) was 26.87±3.58, the “proportion of PP” value ([1]; HIT+ plasma, SFLLRN 5 μM, high-dose heparin 100 U/mL) was 4.39±0.35 and the “proportion of PP” value ([1]; HIT+ plasma, SFLLRN 5 μM, therapeutic-concentration heparin 0.5 U/mL) was 36.53±7.50. For the same compound, the “difference in PP formation in response to SFLLRN, ADP or CRP-xL” value ([1]; HIT− plasma, therapeutic or high heparin concentrations (FIGS. 3A, C, E)) was “no difference”, the “difference in PP proportion compared to basal levels without exogenous plasma” value ([1]; heparin 0.5 U/mL or 100 U/mL, HIT+ or HIT− plasma, no platelet agonist (FIG. 2)) was “no differences” and the “occurrence of HIT in patients receiving the drug” value [4] was “up to 3%”.
In the case of low-molecular-weight heparin, the “occurrence of HIT in patients receiving the drug” value [4] is listed as 0.2%.
With “thrombin: bovine thrombin (Sigma-Aldrich), platelet agonist” the “proportion of PP” value ([1]; HIT+ plasma, absence of heparin (FIG. 6A, D), thrombin 1 U/mL, CRP-xL 2 μg/mL) was 18.86±3.94, the “proportion of PP” value ([1]; HIT− plasma, absence of heparin (FIG. 6A, D), thrombin 1 U/mL, CRP-xL 2 μg/mL) was 19.55±4.16 and the “proportion of PP” value ([1]; no plasma, absence of heparin (FIG. 6A, D), thrombin 1 U/mL, CRP-xL 2 μg/mL) was 4.16±0.24. The “Average fold-change” value ([3]; combined sample / healthy control sample) was 5.7 fold, the “Average fold-change” value ([3]; combined sample / healthy control sample + autologous plasma) was 2.1 fold and the “increase in procoagulant platelet proportions relative to no plasma” value ([3]; autologous plasma, thrombin stimulation (FIG. 13B)) was 0.3-5.5%. For the same compound, the “increase in procoagulant platelet response” value ([3]; plasma from an APS patient collected during plasma exchange, thrombin 1 U/mL, CRP-xL 2 μg/mL (FIG. 14)) was 4.5 fold.
